Experimental data reported in US8211465B2, “Immediate release and sustained release ibuprofen dosing regimen” (McNeil-PPC, Inc., priority 2007, dated 2012).

Test system: moderate to severe post-operative dental pain
Experiment: PK/PD dental pain study, 12 hour observation period
Description: A double-blind, randomized, parallel, placebo-controlled, single center, PK/PD dental pain study was conducted over a 12 hour observation period to evaluate the pharmacokinetic, pharmacodynamic, efficacy and safety profiles of certain ibuprofen dosing regimens. Specifically, a single dose of 600 mg ibuprofen extended release caplets was compared with equivalent total doses of ibuprofen immediate release 200 mg caplets administered in three different dosing regimens as well as placebo in the treatment of moderate to severe post-operative dental pain. […] One sub-group of patients had both pharmacokinetic and pharmacodynamic evaluation (PK group). The other sub-group of patients had only the analgesic efficacy evaluations (non-PK group). Patients from both subgroups were assigned at random to one of the five following treatments:
A stopwatch technique was used to measure the onset of meaningful pain relief.

Q: With `CC(C)Cc1ccc(C(C)C(=O)O)cc1` (stereo not shown) [ibuprofen, 2-(4-isobutylphenyl)-propionic acid] as the molecule, how does the “pain relief during the first four hours” value (400/200/0 regimen: immediate release 400 mg at 0 hour, 200 mg at 4 hours) read?
A: superior pain relief over the other treatments

Q: What about the “pain relief over the entire 12-hour study period” value (400/200/0 regimen: immediate release 400 mg at 0 hour, 200 mg at 4 hours, dental pain patients) of the same molecule?
A: excellent pain relief

Q: What about the “pain relief scores during the 4 to 12 hour interval” value (400/200/0 regimen, no further ibuprofen after the first four hours) of the same molecule?
A: highest pain relief scores

Q: And the “pain relief during the first four hours” value (600/0/0 immediate release treatment: 600 mg single dose at 0 hour)?
A: superior pain relief over the other treatments
